US20170121344A1 (Siga Technologies, Inc., priority 2009, published 2017)
Structures can show the parent of a compound that is named as a salt. Where two headings read alike, the source gives them in different places.

Test system: Dengue-2 (Strain New Guinea C)
Assay: Viral yield assay against Dengue-2 in Vero cells
Type: cell-based, Dengue virus
Procedure, shortened: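 Infect Vero cells with virus (MOI 0.1), add compound or DMSO, incubate at 37° C, collect progeny at 48 hours post infection, then titrate on Vero cells to obtain EC50.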

[1] = Dengue virus, Vero cells, MOI 0.1, harvested 48 hours post infection, read-out: Activity (EC50 class) against Dengue-2 Virus in Vero cells
[2] = Dengue virus, DENV2, viral yield assay, Vero cells, MOI 0.1, 48 hours post infection, read-out: Activity (EC50 in μM) DENV-2
[3] = Dengue virus, Vero, 48 h, read-out: Activity (EC50 class) against Dengue-2 Virus in Vero cells

Row | SMILES | EC50 [1] [µM] | EC50 [2] [µM] | other results
1 | COc1ccc(NC(=O)c2sc3nc(-c4ccccc4)cc(C(F)(F)F)c3c2N)cc1 [Compound 119, 3-Amino-6-phenyl-4-trifluoromethyl-thieno[2,3-b]pyridine-2-carboxylic acid (4-methoxy-phenyl)-amide] | > 25 | – | –
2 | O=C(Nc1cccc(C(F)(F)F)c1)c1sc2ncccc2c1OCc1ccc(Cl)c(Cl)c1 [Compound 377, 3-[(3,4-dichlorophenyl)methoxy]-N-[3-(trifluoromethyl)phenyl]thieno[2,3-b] pyridine-2-carboxamide] | – | < 5 | –
3 | COc1ccc(CNC(=O)c2sc3nc4c(c(C(F)(F)F)c3c2N)CN(C(C)=O)CC4)cc1 [Compound 262, 6-Acetyl-3-amino-4-trifluoromethyl-5,6,7,8-tetrahydro-thieno[2,3-b][1,6]naphthyridine-2-carboxylic acid 4-methoxy-benzylamide] | – | – | EC50 [3]: > 25 µM
4 | Cc1ccc(F)cc1NC(=O)c1sc2nc(-c3cccs3)ccc2c1N [Compound 463, 3-amino-N-(5-fluoro-2-methyl-phenyl)-6-(2-thienyl)thieno [2,3-b]pyridine-2-carboxamide] | – | < 5 | –
5 | Nc1c(C(=O)N(c2ccccc2)c2ccccc2)sc2nc3c(cc12)CCC3 [Compound 207, 3-Amino-6,7-dihydro-5H-cyclopenta[b]thieno[3,2-e]pyridine-2-carboxylic acid diphenylamide] | > 25 | – | –
6 | Nc1c(C(=O)Nc2ccc(Cl)cc2)sc2nc(-c3ccc4c(c3)OCO4)ccc12 [Compound 601, 3-amino-6-(1,3-benzodioxol-5-yl)-N-(4-chlorophenyl)thieno[2,3-b]pyridine-2-carboxamide] | – | < 5 | –
7 | CCc1nnc(NC(=O)c2sc3nc(-c4ccccc4)cc(C(F)(F)F)c3c2N)s1 [Compound 194, 3-Amino-6-phenyl-4-trifluoromethyl-thieno[2,3-b]pyridine-2-carboxylic acid (5-ethyl-[1,3,4]thiadiazol-2-yl)-amide] | > 25 | – | –
8 | Nc1c(C(=O)Nc2cccc3ccccc23)sc2nc3c(cc12)CCCCC3 [Compound 374, 3-amino-N-(naphthalen-1-yl)-6,7,8,9-tetrahydro-5H-cyclohepta[b]thieno[3,2-e] pyridine-2-carboxamide] | – | < 5 | –
9 | COc1ccccc1NC(=O)c1sc2nc(-c3ccc(C)cc3)ccc2c1N [Compound 643, 3-amino-N-(2-methoxyphenyl)-6-(p-tolyl)thieno[2,3-b]pyridine-2-carboxamide] | – | < 5 | –
10 | COc1cccc(-c2ccc3c(N)c(C(=O)Nc4ccc(F)cc4C)sc3n2)c1 [Compound 551, 3-amino-N-(4-fluoro-2-methyl-phenyl)-6-(3-methoxyphenyl)thieno[2,3-b] pyridine-2-carboxamide] | – | < 5 | –
11 | Cc1c(Cl)cccc1NC(=O)c1sc2nc(-c3ccc(F)cc3)ccc2c1N [Compound 604, 3-amino-N-(3-chloro-2-methyl-phenyl)-6-(4-fluorophenyl)thieno[2,3-b]pyridine-2-carboxamide] | – | < 5 | –
12 | COCc1cc(C)nc2sc(C(=O)Nc3ccccc3Cl)c(N)c12 [Compound 185, 3-Amino-4-methoxymethyl-6-methyl-thieno[2,3-b]pyridine-2-carboxylic acid (2-chloro-phenyl)-amide] | > 25 | – | –
13 | Nc1c(C(=O)Nc2cccc(C(F)(F)F)c2)sc2nc(C(F)(F)F)ccc12 [Compound 317, 3-amino-6-(trifluoromethyl)-N-[3-(trifluoromethyl)phenyl]thieno[2,3-b]pyridine-2-carboxamide] | – | < 5 | –
14 | Nc1c(C(=O)Nc2ccc(S(N)(=O)=O)cc2)sc2nc3c(cc12)CCCCC3 [Compound 80, 3-Amino-6,7,8,9-tetrahydro-5H-1-thia-10-aza-cyclohepta[f]indene-2-carboxylic acid (4-sulfamoyl-phenyl)-amide] | – | – | EC50 [3]: 5 to 25 µM
15 | CCc1nnc(NC(=O)c2sc3nc4c(cc3c2N)CCCC4)s1 [Compound 92, 3-Amino-5,6,7,8-tetrahydro-thieno[2,3-b]quinoline-2-carboxylic acid (5-ethyl-[1,3,4]thiadiazol-2-yl)-amide] | 5 to 25 | – | –
16 | COCc1cc(C)nc2sc(C(=O)Nc3cccc(C(F)(F)F)c3)c(N)c12 [Compound 98, 3-Amino-4-methoxymethyl-6-methyl-thieno[2,3-b]pyridine-2-carboxylic acid (3-trifluoromethyl-phenyl)-amide] | – | – | EC50 [3]: 5 to 25 µM
17 | Cc1cc(C)c2c(C)c(C(=O)Nc3ccc4c(c3)OCCO4)sc2n1 [Compound 396, N-(2,3-dihydro-1,4-benzodioxin-6-yl)-3,4,6-trimethyl-thieno[2,3-b]pyridine-2-carboxamide] | – | 5 to 25 | –
18 | Nc1c(C(=O)Nc2ccc([N+](=O)[O-])cc2)sc2nc(-c3cccs3)cc(C(F)(F)F)c12 [Compound 221, 3-Amino-6-thiophen-2-yl-4-trifluoromethyl-thieno[2,3-b]pyridine-2-carboxylic acid (4-nitro-phenyl)-amide] | > 25 | – | –

Row | SMILES | EC50 [1] [µM] | EC50 [2] [µM] | other results
19 | COc1ccc(C)cc1NC(=O)c1sc2nc(C)cc(C)c2c1N [Compound 259, 3-Amino-4,6-dimethyl-thieno[2,3-b]pyridine-2-carboxylic acid (2-methoxy-5-methyl-phenyl)-amide] | > 25 | – | –
20 | COc1ccc(OC)c(CN2CCN(C(=O)c3sc4nc(C)cc(C)c4c3C)CC2)c1 [Compound 407, [4-[(2,5-dimethoxyphenyl)methyl)piperazin-1-yl]-(3,4,6-trimethylthieno [2,3-b]pyridin-2-yl)methanone] | – | > 25 | –
21 | Cc1cc(C)c2c(N)c(C(=O)Nc3ccc(Br)cc3)sc2n1 [Compound 172, 3-Amino-4,6-dimethyl-thieno[2,3-b]pyridine-2-carboxylic acid (4-bromo-phenyl)-amide] | – | – | EC50 [3]: > 25 µM
22 | COc1ccc(CNC(=O)c2sc3nc4c(cc3c2N)CN(C)CC4)cc1OC [Compound 279, 3-Amino-6-methyl-5,6,7,8-tetrahydro-thieno[2,3-b][1,6]naphthyridine-2-carboxylic acid 3,4-dimethoxy-benzylamide] | > 25 | – | –
23 | Cc1cc(C)c2c(N)c(C(=O)NCC(=O)O)sc2n1 [Compound 199, [(3-Amino-4,6-dimethyl-thieno[2,3-b]pyridine-2-carbonyl)-amino]-acetic acid] | > 25 | – | –
24 | Nc1c(C(=O)Nc2ccccc2C(F)(F)F)sc2nc(-c3ccncc3)ccc12 [Compound 480, 3-amino-6-(4-pyridyl)-N-[2-(trifluoromethyl)phenyl]thieno[2,3-b] pyridine-2-carboxamide] | – | < 5 | –
25 | CC1(C)Cc2c(c(N3CCOCC3)nc3sc4c(=O)n(-c5ccccc5)cnc4c23)CO1 [Compound 233, 2,2-Dimethyl-5-morpholin-4-yl-9-phenyl-1,4-dihydro-2H,9H-3-oxa-7-thia-6,9,11-triaza-benzo[c]fluoren-8-one] | > 25 | – | –
26 | CCCc1ccc2c(N)c(C(N)=O)sc2n1 [Compound 71, 3-Amino-6-propyl-thieno[2,3-b]pyridine-2-carboxylic acid amide] | 5 to 25 | – | –
27 | Cc1nc2c(sc3nc4c(cc32)COC(C)(C)C4)c(=O)n1CCN1CCOCC1 [Compound 231, 3,8,8-Trimethyl-2-(2-morpholin-4-yl-ethyl)-8,9-dihydro-2H,6H-7-oxa-11-thia-2,4,10-triaza-benzo[b]fluoren-1-one] | – | – | EC50 [3]: > 25 µM
28 | CCN(CC)C(=O)c1sc2nc3c(cc2c1N)CN(C)CC3 [Compound 15, 3-Amino-6-methyl-5,6,7,8-tetrahydro-thieno[2,3-b][1,6]naphthyridine-2-carboxylic acid diethylamide] | < 5 | – | –
29 | CC(=O)N(CCN)c1c(C(=O)Nc2nnc(-c3ccccc3)s2)sc2nc3c(cc12)CCCCC3 [Compound 314, 3-(N-(2-amino-ethyl)acetamido)-N-(5-phenyl-1,3,4-thiadiazol-2-yl)-6,7,8,9-tetrahydro-5H-cylcohepta[b]thieno[3,2-e]pyridine-2-carboxamide] | – | – | EC50 (Vero cells, read-out: Activity (EC50 in μM) DENV-2): < 5 µM
30 | Cc1ccccc1-n1cnc2c(sc3nc(N4CCOCC4)c4c(c32)CC(C)(C)OC4)c1=O [Compound 100, 2,2-Dimethyl-5-morpholin-4-yl-9-o-tolyl-1,4-dihydro-2H,9H-3-oxa-7-thia-6,9,11-triaza-benzo[c]fluoren-8-one] | 5 to 25 | – | –
31 | COc1cccc(-c2ccc3c(N)c(C(=O)Nc4cccc(F)c4C)sc3n2)c1 [Compound 515, 3-amino-N-(3-fluoro-2-methyl-phenyl)-6-(3-methoxyphenyl)thieno[2,3-b] pyridine-2-carboxamide] | – | < 5 | –
32 | Cc1cc(C)c2c(C)c(C(=O)N3CCc4ccccc4C3)sc2n1 [Compound 408, 3,4-dihydro-1H-isoquinolin-2-yl-(3,4,6-trimethylthieno[2,3-b]pyridin-2-yl) methanone] | – | > 25 | –
33 | Nc1c(C(=O)Nc2nnc(-c3ccccc3)s2)sc2nc3c(cc12)CCNCC3 [Compound 115, 3-Amino-6,7,8,9-tetrahydro-5H-1-thia-7,10-diaza-cyclohepta[f]indene-2-carboxylic acid (5-phenyl-[1,3,4]thiadiazol-2-yl)-amide hydrochloride] | 5 to 25 | – | –
34 | Cc1cc(C)c2c(N)c(C(=O)Nc3cccc(C)c3C)sc2n1 [Compound 181, 3-Amino-4,6-dimethyl-thieno[2,3-b]pyridine-2-carboxylic acid (2,3-dimethyl-phenyl)-amide] | – | – | EC50 [3]: > 25 µM
35 | Cc1cc(C)c2c(N)c(C(=O)NC34CC5CC(CC(C5)C3)C4)sc2n1 [Compound 122, 3-Amino-4,6-dimethyl-thieno[2,3-b]pyridine-2-carboxylic acid adamantan-1-ylamide] | > 25 | – | –
36 | Nc1c(C(=O)Nc2ccc(F)cc2)sc2nc3c(cc12)CCC3 [Compound 177, 3-Amino-6,7-dihydro-5H-cyclopenta[b]thieno[3,2-e]pyridine-2-carboxylic acid (4-fluoro-phenyl)-amide] | > 25 | – | –
